From ChEMBL document CHEMBL3044921, “Synthesis, characterization, and SAR studies of new (1H-indol-3-yl)alkyl-3-(1H-indol-3-yl)propanamide derivatives as possible antimicrobial and antitubercular agents” (2013)
≈ marks a conversion by molar mass, not a printed value.

Key:
[1] = tested on: Pseudomonas aeruginosa; experiment: Antibacterial activity against Pseudomonas aeruginosa ATCC 27853 assessed as growth inhibition after 16 to 18 hr by serial plate dilution method; assay type: functional
[2] = tested on: Trichophyton mentagrophytes; experiment: Antifungal activity against Trichophyton mentagrophytes assessed as growth inhibition after 3 to 4 days by serial plate dilution method; assay type: functional
[3] = tested on: Trichophyton mentagrophytes; experiment: Antifungal activity against Trichophyton mentagrophytes assessed as growth inhibition at […] to […] ug/ml after 3 to 4 days by agar well diffusion method; assay type: functional
[4] = tested on: Talaromyces marneffei; experiment: Antifungal activity against Talaromyces marneffei assessed as growth inhibition at […] to […] ug/ml after 3 to 4 days by agar well diffusion method; assay type: functional
[5] = tested on: Mycolicibacterium smegmatis; experiment: Antitubercular activity against Mycobacterium smegmatis ATCC 19420 assessed as growth inhibition at 0.3125 to 5 ug/mL after 7 days by resazurin reduction test; assay type: functional; settings: ATCC 19420, 168 h
[6] = tested on: Escherichia coli; experiment: Antibacterial activity against Escherichia coli […] assessed as growth inhibition after 16 to 18 hr by serial plate dilution method; assay type: functional
[7] = tested on: Klebsiella pneumoniae; assay type: functional
Description: Antibacterial activity against Klebsiella pneumoniae assessed as growth inhibition at 1.56 to 25 ug/ml after 3 to 4 days by agar well diffusion method

[8] = tested on: Klebsiella pneumoniae; experiment: Antibacterial activity against Klebsiella pneumoniae assessed as growth inhibition after 16 to 18 hr by serial plate dilution method; assay type: functional
[9] = tested on: Streptococcus pyogenes; experiment: Antibacterial activity against Streptococcus pyogenes assessed as growth inhibition after 16 to 18 hr by serial plate dilution method; assay type: functional
[10] = tested on: Staphylococcus aureus; experiment: Antibacterial activity against Staphylococcus aureus ATCC 25923 assessed as growth inhibition after 16 to 18 hr by serial plate dilution method; assay type: functional
[11] = tested on: Staphylococcus aureus; assay type: functional, ATCC 25923
Description: Antibacterial activity against Staphylococcus aureus ATCC 25923 assessed as growth inhibition at 1.56 to 25 ug/ml after 3 to 4 days by agar well diffusion method

[12] = tested on: Streptococcus pyogenes; assay type: functional
Description: Antibacterial activity against Streptococcus pyogenes assessed as growth inhibition at 1.56 to 25 ug/ml after 3 to 4 days by agar well diffusion method

[13] = tested on: Pseudomonas aeruginosa; assay type: functional, ATCC 27853
Description: Antibacterial activity against Pseudomonas aeruginosa ATCC 27853 assessed as growth inhibition at 1.56 to 25 ug/ml after 3 to 4 days by agar well diffusion method

[14] = tested on: Mycolicibacterium fortuitum; experiment: Antitubercular activity against Mycobacterium fortuitum ATCC 19542 assessed as growth inhibition at 1 to 100 ug/mL after 7 days by resazurin reduction test; assay type: functional; settings: ATCC 19542, 168 h
[15] = tested on: Mycobacterium tuberculosis; experiment: Antitubercular activity against Mycobacterium tuberculosis H37Rv ATCC 27294 assessed as growth inhibition at 0.3125 to 5 ug/mL after 7 days by resazurin reduction test; assay type: functional; settings: H37Rv ATCC 27294, 168 h
[16] = tested on: Mycolicibacterium fortuitum; experiment: Antitubercular activity against Mycobacterium fortuitum ATCC 19542 assessed as growth inhibition at 0.3125 to 5 ug/mL after 7 days by resazurin reduction test; assay type: functional; settings: ATCC 19542, 168 h
[17] = tested on: Candida albicans; experiment: Antifungal activity against Candida albicans assessed as growth inhibition after 3 to 4 days by serial plate dilution method; assay type: functional
[18] = tested on: Aspergillus fumigatus; experiment: Antifungal activity against Aspergillus fumigatus NCIM 902 assessed as growth inhibition after 3 to 4 days by serial plate dilution method; assay type: functional
[19] = tested on: Escherichia coli; assay type: functional, ATCC 24922
Description: Antibacterial activity against Escherichia coli ATCC 24922 assessed as growth inhibition at 1.56 to 25 ug/ml after 3 to 4 days by agar well diffusion method

[20] = tested on: Aspergillus flavus; experiment: Antifungal activity against Aspergillus flavus NCIM 524 assessed as growth inhibition at […] to […] ug/ml after 3 to 4 days by agar well diffusion method; assay type: functional
[21] = tested on: Talaromyces marneffei; experiment: Antifungal activity against Talaromyces marneffei assessed as growth inhibition after 3 to 4 days by serial plate dilution method; assay type: functional
[22] = tested on: Mycobacterium tuberculosis; experiment: Antitubercular activity against Mycobacterium tuberculosis H37Rv ATCC 27294 assessed as growth inhibition at 1 to 100 ug/mL after 7 days by resazurin reduction test; assay type: functional; settings: for MIC: Mycobacterium tuberculosis, H37Rv ATCC 27294, 168 h
[23] = tested on: Mycolicibacterium smegmatis; experiment: Antitubercular activity against Mycobacterium smegmatis ATCC 19420 assessed as growth inhibition at 1 to 100 ug/mL after 7 days by resazurin reduction test; assay type: functional; settings: ATCC 19420, 168 h
[24] = tested on: Aspergillus flavus; experiment: Antifungal activity against Aspergillus flavus NCIM 524 assessed as growth inhibition after 3 to 4 days by serial plate dilution method; assay type: functional
[25] = tested on: Candida albicans; experiment: Antifungal activity against Candida albicans assessed as growth inhibition at […] to […] ug/ml after 3 to 4 days by agar well diffusion method; assay type: functional
[26] = tested on: Aspergillus fumigatus; experiment: Antifungal activity against Aspergillus fumigatus NCIM 902 assessed as growth inhibition at […] to […] ug/ml after 3 to 4 days by agar well diffusion method; assay type: functional

Row | SMILES | MIC [1] [µg/mL] | MIC [2] [µg/mL] | diameter of the inhibition zone (DIZ) [3] [mm] | diameter of the inhibition zone (DIZ) [4] [mm] | MIC [5] [µg/mL] | MIC [6] [µg/mL] | diameter of the inhibition zone (DIZ) [7] [mm] | MIC [8] [µg/mL] | MIC [9] [µg/mL] | MIC [10] [µg/mL] | diameter of the inhibition zone (DIZ) [11] [mm] | diameter of the inhibition zone (DIZ) [12] [mm] | diameter of the inhibition zone (DIZ) [13] [mm] | MIC [14] [µg/mL] | MIC [15] [µg/mL] | MIC [16] [µg/mL] | MIC [17] [µg/mL] | growth inhibition (GI) [22] [%] | MIC [22] [µg/mL] | MIC [23] [µg/mL] | further results
1 | Cn1cc(CCCNC(=O)CCc2c[nH]c3ccc(Cl)cc23)c2cc(OC(F)(F)F)ccc21 | 6.25 (≈ 13.1 µM) | 25 (≈ 52.3 µM) | <10 | 11 | 10 (≈ 20.9 µM) | 6.25 (≈ 13.1 µM) | 16 | 6.25 (≈ 13.1 µM) | 6.25 (≈ 13.1 µM) | 6.25 (≈ 13.1 µM) | 16 | 16 | 16 | 10 (≈ 20.9 µM) | 0.625 (≈ 1.31 µM) | 10 (≈ 20.9 µM) | 25 (≈ 52.3 µM) | 95 | 1 (≈ 2.09 µM) | 10 (≈ 20.9 µM) | MIC [18]: 25 µg/mL (≈ 52.3 µM); diameter of the inhibition zone (DIZ) [19]: 16 mm; diameter of the inhibition zone (DIZ) [20]: <10 mm; MIC [21]: 12.5 µg/mL (≈ 26.2 µM); MIC [24]: 25 µg/mL (≈ 52.3 µM); diameter of the inhibition zone (DIZ) [25]: <10 mm; diameter of the inhibition zone (DIZ) [26]: <10 mm
2 | O=C(CCc1c[nH]c2ccc(Cl)cc12)NCc1c[nH]c2ccc(Cl)cc12 | 6.25 (≈ 16.2 µM) | 6.25 (≈ 16.2 µM) | 16 | <10 | 1.25 (≈ 3.24 µM) | 6.25 (≈ 16.2 µM) | 16 | 6.25 (≈ 16.2 µM) | 12.5 (≈ 32.4 µM) | 6.25 (≈ 16.2 µM) | 16 | 11 | 16 | 10 (≈ 25.9 µM) | 0.625 (≈ 1.62 µM) | 10 (≈ 25.9 µM) | 25 (≈ 64.7 µM) | 90 | 1 (≈ 2.59 µM) | 1 (≈ 2.59 µM) | MIC [18]: 6.25 µg/mL (≈ 16.2 µM); diameter of the inhibition zone (DIZ) [19]: 16 mm; diameter of the inhibition zone (DIZ) [20]: <10 mm; MIC [21]: 25 µg/mL (≈ 64.7 µM); MIC [24]: 25 µg/mL (≈ 64.7 µM); diameter of the inhibition zone (DIZ) [25]: <10 mm; diameter of the inhibition zone (DIZ) [26]: 16 mm
3 | Cn1cc(CCC(=O)NCc2cn(C)c3ccc(Cl)cc23)c2cc(Cl)ccc21 | 12.5 (≈ 30.2 µM) | 25 (≈ 60.3 µM) | <10 | 11 | 10 (≈ 24.1 µM) | 12.5 (≈ 30.2 µM) | 11 | 12.5 (≈ 30.2 µM) | 25 (≈ 60.3 µM) | 25 (≈ 60.3 µM) | <10 | <10 | 11 | 10 (≈ 24.1 µM) | 10 (≈ 24.1 µM) | 10 (≈ 24.1 µM) | 25 (≈ 60.3 µM) | <90 | > 100 | > 100 | MIC [18]: 25 µg/mL (≈ 60.3 µM); diameter of the inhibition zone (DIZ) [19]: 11 mm; diameter of the inhibition zone (DIZ) [20]: <10 mm; MIC [21]: 12.5 µg/mL (≈ 30.2 µM); MIC [24]: 25 µg/mL (≈ 60.3 µM); diameter of the inhibition zone (DIZ) [25]: <10 mm; diameter of the inhibition zone (DIZ) [26]: <10 mm
4 | Cc1[nH]c2ccc(OC(F)(F)F)cc2c1CNC(=O)CCc1c[nH]c2ccc(Cl)cc12 | 6.25 (≈ 13.9 µM) | 25 (≈ 55.6 µM) | <10 | 16 | 10 (≈ 22.2 µM) | 12.5 (≈ 27.8 µM) | <10 | 25 (≈ 55.6 µM) | 6.25 (≈ 13.9 µM) | 6.25 (≈ 13.9 µM) | 16 | 16 | 16 | 10 (≈ 22.2 µM) | 0.625 (≈ 1.39 µM) | 10 (≈ 22.2 µM) | 25 (≈ 55.6 µM) | 95 | 1 (≈ 2.22 µM) | 10 (≈ 22.2 µM) | MIC [18]: 25 µg/mL (≈ 55.6 µM); diameter of the inhibition zone (DIZ) [19]: 11 mm; diameter of the inhibition zone (DIZ) [20]: 16 mm; MIC [21]: 6.25 µg/mL (≈ 13.9 µM); MIC [24]: 6.25 µg/mL (≈ 13.9 µM); diameter of the inhibition zone (DIZ) [25]: <10 mm; diameter of the inhibition zone (DIZ) [26]: <10 mm
5 | CO[C@H]1/C=C/O[C@@]2(C)Oc3c(C)c(O)c4c(O)c(c(/C=N/N5CCN(C)CC5)c(O)c4c3C2=O)NC(=O)/C(C)=C\C=C\[C@H](C)[C@H](O)[C@@H](C)[C@@H](O)[C@@H](C)[C@H](OC(C)=O)[C@@H]1C [RIFAMPIN] |  |  |  |  | 1.5 (≈ 1.82 µM) |  |  |  |  |  |  |  |  | 1.5 (≈ 1.82 µM) | 0.5 (≈ 0.608 µM) | 1.5 (≈ 1.82 µM) |  | 95 | 0.5 (≈ 0.608 µM) | 1.5 (≈ 1.82 µM) | 
6 | Cc1[nH]c2ccc(OC(F)(F)F)cc2c1CCCNC(=O)CCc1c[nH]c2ccc(Cl)cc12 | 6.25 (≈ 13.1 µM) | 6.25 (≈ 13.1 µM) | 16 | 16 | 10 (≈ 20.9 µM) | 6.25 (≈ 13.1 µM) | 16 | 6.25 (≈ 13.1 µM) | 6.25 (≈ 13.1 µM) | 6.25 (≈ 13.1 µM) | 16 | 16 | 16 | 10 (≈ 20.9 µM) | 2.5 (≈ 5.23 µM) | 10 (≈ 20.9 µM) | 6.25 (≈ 13.1 µM) | <90 | 10 (≈ 20.9 µM) | 10 (≈ 20.9 µM) | MIC [18]: 6.25 µg/mL (≈ 13.1 µM); diameter of the inhibition zone (DIZ) [19]: 16 mm; diameter of the inhibition zone (DIZ) [20]: 16 mm; MIC [21]: 6.25 µg/mL (≈ 13.1 µM); MIC [24]: 6.25 µg/mL (≈ 13.1 µM); diameter of the inhibition zone (DIZ) [25]: 16 mm; diameter of the inhibition zone (DIZ) [26]: 16 mm
7 | Cn1cc(CCC(=O)NCCCc2c[nH]c3ccc(Cl)cc23)c2cc(Cl)ccc21 | 6.25 (≈ 14.6 µM) | 12.5 (≈ 29.2 µM) | 11 | <10 | 2.5 (≈ 5.84 µM) | 6.25 (≈ 14.6 µM) | 16 | 6.25 (≈ 14.6 µM) | 12.5 (≈ 29.2 µM) | 6.25 (≈ 14.6 µM) | 16 | 11 | 16 | > 100 | 2.5 (≈ 5.84 µM) |  | 6.25 (≈ 14.6 µM) | <90 | 10 (≈ 23.3 µM) | 10 (≈ 23.3 µM) | MIC [18]: 25 µg/mL (≈ 58.4 µM); diameter of the inhibition zone (DIZ) [19]: 16 mm; diameter of the inhibition zone (DIZ) [20]: <10 mm; MIC [21]: 25 µg/mL (≈ 58.4 µM); MIC [24]: 25 µg/mL (≈ 58.4 µM); diameter of the inhibition zone (DIZ) [25]: 16 mm; diameter of the inhibition zone (DIZ) [26]: <10 mm
8 | NNC(=O)c1ccncc1 [ISONIAZID] |  |  |  |  | 50 (≈ 365 µM) |  |  |  |  |  |  |  |  | 12.5 (≈ 91.1 µM) | 0.7 (≈ 5.1 µM) | 12.5 (≈ 91.1 µM) |  | 95 | 0.7 (≈ 5.1 µM) | 50 (≈ 365 µM) | 
9 | Cn1cc(CCCNC(=O)CCc2cn(C)c3ccc(Cl)cc23)c2cc(Cl)ccc21 | 25 (≈ 56.5 µM) | 12.5 (≈ 28.3 µM) | 11 | <10 | 10 (≈ 22.6 µM) | 25 (≈ 56.5 µM) | <10 | 25 (≈ 56.5 µM) | 25 (≈ 56.5 µM) | 12.5 (≈ 28.3 µM) | 11 | <10 | <10 | > 100 | 5 (≈ 11.3 µM) |  | 25 (≈ 56.5 µM) | <90 | 10 (≈ 22.6 µM) | 10 (≈ 22.6 µM) | MIC [18]: 12.5 µg/mL (≈ 28.3 µM); diameter of the inhibition zone (DIZ) [19]: <10 mm; diameter of the inhibition zone (DIZ) [20]: 11 mm; MIC [21]: 25 µg/mL (≈ 56.5 µM); MIC [24]: 12.5 µg/mL (≈ 28.3 µM); diameter of the inhibition zone (DIZ) [25]: <10 mm; diameter of the inhibition zone (DIZ) [26]: 11 mm
